Results as given in publication PMC11480954, “Molecular determinants of resurgent sodium currents mediated by Navβ4 peptide and A-type FHFs” (Frontiers in Molecular Neuroscience, 2024).

How the values were obtained:
Nav1.8 F1710K [1] = assay: INaR, Nav1.8 mutant F1710K; assay type: cell-based, human; conditions: 1 mM FHF4A peptide
Experimental: (§1) HEK293 cells and ND7/23 cells were grown under standard tissue culture conditions (5% CO2 and 37°C) in DMEM supplemented with 10% FBS, 1% penicillin and 1% streptomycin. Using Invitrogen Lipofectamine 2000, human Nav1.7 R1599P (rpNav1.7) and the mutant constructs were transiently co-transfected with Navβ1 and Navβ2 into HEK293 cells. The constructs human Nav1.8 and mutants were transiently co-transfected with FHF2B or FHF4A into ND7/23 cells. The lipofectamine-DNA mixture was added to the cell culture medium and left for 3 h after which the cells were washed with fresh medium. Cells with green fluorescent protein fluorescence were selected for whole-cell patch-clamp recordings 36–72 h after transfection.
(§2) Whole-cell voltage-clamp recordings were performed at room temperature (~21°C) using an EPC-10 amplifier and the Pulse program (HEKA Electronics). […]
(§3) INaR: INaR was elicited by repolarizing voltage steps from +20 to −80 mV for 100 ms (or 200 ms) in −5 mV increments, following a 20-ms depolarizing potential of +30 mV. […] The relative INaR in Nav1.7 and Nav1.8 was calculated by normalizing to the peak transient current elicited at −10 or 0 mV.

Nav1.8 F1710K [2] = assay: Gating properties, Nav1.8 mutant F1710K; assay type: cell-based, human
Experimental: as §1
(§4) Whole-cell voltage-clamp recordings were performed at room temperature (~21°C) using an EPC-10 amplifier and the Pulse program (HEKA Electronics). Fire-polished electrodes (0.7–1.0 MΩ) were fabricated from 1.7 mm capillary glass using a P-97 puller (Sutter Instruments), and the tips were coated with sticky wax (KerrLab) to reduce electrode capacitance and enable increased series resistance compensation. The pipette solution contained (in mM) 140 CsF, 1.1 EGTA, 10 NaCl, and 10 HEPES, pH 7.3. The bathing solution was (in mM) 130 mM NaCl, 30 mM TEA chloride, 1 mM MgCl2, 3 mM KCl, 1 mM CaCl2, 10 mM HEPES, and 10 mM d-glucose, pH 7.3 (adjusted with NaOH). […] The offset potential was zeroed before contacting the cell. After establishing the whole-cell recording configuration, the resting potential was held at −120 or −100 mV for 5 min to allow adequate equilibration between the micropipette solution and the cell interior. Linear leak subtraction, based on resistance estimates from four to five hyperpolarizing pulses applied before the depolarizing test potential, was used for all voltage clamp recordings. Membrane currents were usually filtered at 5 kHz and sampled at 20 kHz. […] Voltage errors were minimized using 80–95% series resistance compensation, and the capacitance artifact was canceled using the computer-controlled circuitry of the patch clamp amplifier. […] The concentration-dependent curves were fitted to a hill equation: Y = Bottom + (Top-Bottom)/(1 + 10^((LogEC50-X)*HillSlope)).
(§5) Families of sodium currents were induced by 50-ms depolarizing steps to various potentials ranging from −120 (or −100) to +40 mV in 5-mV increments. The conductance was calculated using the equation G(Nav) = I/(V - Vrev) in which I, V, and Vrev represent inward current value, membrane potential, and reversal potential, respectively.
(§6) Voltage dependence of steady-state inactivation was estimated using a standard double pulse protocol in which sodium currents were induced by a 50-ms depolarizing potential of 0 mV following a 500-ms prepulse at potentials that ranged from −150 to +10 mV with a 10-mV increment. Currents were plotted as a fraction of the maximum peak current. To obtain the midpoint voltages (V1/2) and slope factor (k), the curves of both steady-state activation and inactivation were fitted to a Boltzmann function.

[3] = biological target: T1, human Nav1.7 R1599P (rpNav1.7) (Homo sapiens, UniProt Q15858, R1610P); assay: Inhibition of Navβ4 peptide-mediated rpNav1.7 INaR; assay type: cell-based; conditions: 100 μM Navβ4 peptide + 1 mM FHF4A peptide, HEK293; n = 5
T1 construct: expressed in transfected cells; host or cells: HEK293 cells, transient transfection with pcDNA3.1 construct
T1 sequence (Q15858 1-1977 isoform Q15858-3 R1599P): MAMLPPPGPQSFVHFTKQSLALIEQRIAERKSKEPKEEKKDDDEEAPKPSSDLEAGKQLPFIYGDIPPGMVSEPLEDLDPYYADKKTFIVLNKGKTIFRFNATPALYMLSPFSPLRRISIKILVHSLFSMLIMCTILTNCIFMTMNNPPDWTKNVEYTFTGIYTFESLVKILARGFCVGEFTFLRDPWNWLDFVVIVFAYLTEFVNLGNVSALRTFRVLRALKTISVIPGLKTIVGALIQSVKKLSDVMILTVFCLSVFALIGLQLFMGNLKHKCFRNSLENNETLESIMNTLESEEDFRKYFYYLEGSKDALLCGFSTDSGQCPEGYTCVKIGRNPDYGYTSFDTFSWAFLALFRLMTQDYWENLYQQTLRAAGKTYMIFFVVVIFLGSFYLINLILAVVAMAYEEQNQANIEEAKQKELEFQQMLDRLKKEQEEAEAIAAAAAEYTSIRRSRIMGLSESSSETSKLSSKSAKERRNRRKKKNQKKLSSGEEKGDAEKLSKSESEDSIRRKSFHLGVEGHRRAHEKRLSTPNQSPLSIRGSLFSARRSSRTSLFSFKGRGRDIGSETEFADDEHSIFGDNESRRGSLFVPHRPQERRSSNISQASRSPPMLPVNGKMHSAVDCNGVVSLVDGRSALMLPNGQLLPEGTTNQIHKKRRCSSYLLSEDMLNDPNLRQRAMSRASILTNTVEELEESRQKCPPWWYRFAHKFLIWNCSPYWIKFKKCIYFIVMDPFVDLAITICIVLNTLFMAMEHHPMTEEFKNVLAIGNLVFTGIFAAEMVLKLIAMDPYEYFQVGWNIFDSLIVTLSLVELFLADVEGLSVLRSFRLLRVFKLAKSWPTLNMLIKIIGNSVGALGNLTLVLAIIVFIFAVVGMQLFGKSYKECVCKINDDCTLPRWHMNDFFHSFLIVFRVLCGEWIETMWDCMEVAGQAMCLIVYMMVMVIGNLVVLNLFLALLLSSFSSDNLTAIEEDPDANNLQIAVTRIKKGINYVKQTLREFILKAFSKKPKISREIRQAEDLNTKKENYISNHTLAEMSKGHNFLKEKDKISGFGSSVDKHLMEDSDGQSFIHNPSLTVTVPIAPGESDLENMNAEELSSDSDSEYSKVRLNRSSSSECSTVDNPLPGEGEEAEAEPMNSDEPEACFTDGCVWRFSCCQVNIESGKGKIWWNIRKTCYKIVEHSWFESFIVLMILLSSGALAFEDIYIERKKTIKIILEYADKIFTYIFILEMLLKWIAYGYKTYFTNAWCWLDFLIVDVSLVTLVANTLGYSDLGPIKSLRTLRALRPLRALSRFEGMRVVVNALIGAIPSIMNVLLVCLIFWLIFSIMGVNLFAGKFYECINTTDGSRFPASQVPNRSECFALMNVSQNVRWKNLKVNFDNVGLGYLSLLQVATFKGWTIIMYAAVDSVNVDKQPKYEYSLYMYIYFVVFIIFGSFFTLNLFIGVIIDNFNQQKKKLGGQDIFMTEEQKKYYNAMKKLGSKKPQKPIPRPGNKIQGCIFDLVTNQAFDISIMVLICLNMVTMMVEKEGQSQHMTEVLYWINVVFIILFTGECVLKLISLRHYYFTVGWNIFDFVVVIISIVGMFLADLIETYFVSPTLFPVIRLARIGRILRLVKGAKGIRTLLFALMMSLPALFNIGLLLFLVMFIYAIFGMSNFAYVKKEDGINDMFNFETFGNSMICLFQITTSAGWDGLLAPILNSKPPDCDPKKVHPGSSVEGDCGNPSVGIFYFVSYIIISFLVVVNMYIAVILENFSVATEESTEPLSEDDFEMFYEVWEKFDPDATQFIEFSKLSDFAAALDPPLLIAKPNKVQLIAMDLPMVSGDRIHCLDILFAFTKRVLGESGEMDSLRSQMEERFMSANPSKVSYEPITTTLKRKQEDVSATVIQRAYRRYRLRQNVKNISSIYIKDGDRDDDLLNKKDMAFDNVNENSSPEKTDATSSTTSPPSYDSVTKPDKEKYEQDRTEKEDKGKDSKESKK
T1 sequence (Q07699 19-218 partner): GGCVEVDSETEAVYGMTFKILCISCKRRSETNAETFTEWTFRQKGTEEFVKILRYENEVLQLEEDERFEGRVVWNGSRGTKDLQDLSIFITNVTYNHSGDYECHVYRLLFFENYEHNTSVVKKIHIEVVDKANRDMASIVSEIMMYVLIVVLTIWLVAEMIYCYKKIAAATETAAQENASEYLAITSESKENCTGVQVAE
T1 sequence (O60939 30-215 partner): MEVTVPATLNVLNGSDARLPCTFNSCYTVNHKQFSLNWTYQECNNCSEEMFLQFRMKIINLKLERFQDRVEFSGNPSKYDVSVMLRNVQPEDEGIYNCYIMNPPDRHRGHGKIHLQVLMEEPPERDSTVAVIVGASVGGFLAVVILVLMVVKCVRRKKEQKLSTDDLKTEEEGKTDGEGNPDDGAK

human Nav1.8 = assay: Gating properties (steady-state activation, inactivation, INaP), Nav1.8; assay type: cell-based
Experimental: as §1, §4, §5, §6

Nav1.8 Y387K [4] = assay: INaR, Nav1.8 mutant Y387K; assay type: cell-based, human; conditions: 1 mM FHF4A peptide, + FHF2B, ND7/23; n = 8; p > 0.05 vs Nav1.8
Experimental: as §1, §2, §3

Nav1.8 N390K [5] = assay: INaR, Nav1.8 mutant N390K; assay type: cell-based, human; conditions: 1 mM FHF4A peptide
Experimental: as §1, §2, §3

Nav1.8 Y387K [6] = assay: Gating properties, Nav1.8 mutant Y387K; assay type: cell-based, human; conditions: 1 mM FHF4A peptide
Experimental: as §1, §4
(§7) Families of sodium currents were induced by 50-ms depolarizing steps to various potentials ranging from −120 (or −100) to +40 mV in 5-mV increments. The conductance was calculated using the equation G(Nav) = I/(V - Vrev) in which I, V, and Vrev represent inward current value, membrane potential, and reversal potential, respectively. […]

Nav1.8 [7] = conditions: ref Xiao et al., 2022; cited from earlier work
Description: Next, we investigated if FHF4A, another INaR mediator reported recently ([White et al., 2019]; [Xiao et al., 2022]), shares the receptor site in VGSCs with Navβ4 peptide. […] They consist of a long N-terminus, an FGF-like β-trefoil core, and a short C-terminus ([Goldfarb, 2005]). They display an intrinsic capability to generate INaR, to a varying extent, in Nav1.8 and Nav1.9.

Nav1.8 Y1717K [8] = assay: INaR, Nav1.8 mutant Y1717K; assay type: cell-based, human; conditions: 1 mM FHF4A peptide, + FHF2B, ND7/23; n = 10; p > 0.05 vs Nav1.8
Experimental: as §1, §2, §3

Nav1.8 N390K [9] = assay: Gating properties, Nav1.8 mutant N390K; assay type: cell-based, human; conditions: 1 mM FHF4A peptide
Experimental: as §1, §4, §7

Nav1.8 Y1717K [10] = assay: Gating properties, Nav1.8 mutant Y1717K; assay type: cell-based, human
Experimental: as §1, §4, §5, §6

Nav1.8 [11] = conditions: ref Xiao et al., 2022; cited from earlier work; remark: listed apart in the source
Description: This mechanism requires that the peptides compete with the fast inactivation particle to block open VGSCs at strong positive potentials and unblocks upon repolarization so that the channels can reconduct ([Cannon and Bean, 2010]).

[12] = Nav1.8 + FHF2B, ND7/23, 1 mM, held at −100 mV, scramble n = 8, FHF4A peptide n = 10, p > 0.05

AAAIASGLIRQKRQAREQHW [FHF4A peptide, synthetic 20-residue peptide from FHF4A A2 – W21]
average INaR amplitude at −15 mV, F1710K (Nav1.8 F1710K [1]; + FHF2B, ND7/23, n = 6, p < 0.0001 vs Nav1.8): 0.5% ± 0.1% | decrease of INaR amplitude by F1710K (Nav1.8 F1710K [1]; −15 mV, vs Nav1.8): ninefold | V1/2 of steady-state inactivation, F1710K vs Nav1.8 (Nav1.8 F1710K [2]; 1 mM FHF4A peptide): None of four lysine-mutations significantly changed the V1/2 value of steady-state inactivation | Inactivation (V1/2), F1710K (Nav1.8 F1710K [2]; 1 mM FHF4A peptide, + FHF2B, ND7/23, n = 7): −41.1 ± 5.5 (7) mV | Activation (V1/2), F1710K (Nav1.8 F1710K [2]; 1 mM FHF4A peptide, + FHF2B, ND7/23, n = 7, ***p < 0.0001): 19.9 ± 2.0*** (7) mV | INaP, F1710K (Nav1.8 F1710K [2]; end of 50-ms pulse of +10 mV, normalized to peak transient current, 1 mM FHF4A peptide, n = 6, **p < 0.01): 0.8 ± 0.9^** (6) % | positive shift of voltage dependence of activation by F1710K (Nav1.8 F1710K [2]; vs Nav1.8, 1 mM FHF4A peptide): 31.0 mV | inhibition of Navβ4 peptide-mediated rpNav1.7 INaR [3]: inhibited completely | effect on steady-state activation or inactivation (human Nav1.8; Nav1.8 + FHF2B, ND7/23, FHF4A peptide): did not alter steady-state activation or inactivation | V1/2 (activation), Nav1.8, Figure 6 (human Nav1.8; [12]): −12.5 ± 1.7 mV | V1/2 (inactivation), Nav1.8, Figure 6 (human Nav1.8; [12]): −42.4 ± 4.3 mV | INaP, Nav1.8 (human Nav1.8; end of 50-ms pulse of +10 mV, normalized to peak transient current, 1 mM FHF4A peptide, n = 9): 3.0 ± 1.8 (9) % | average INaR amplitude at −15 mV, Y387K (Nav1.8 Y387K [4]): 5.3% ± 0.5% | voltage dependence of INaR, N390K (Nav1.8 N390K [5]): slightly shifted the voltage dependence of Nav1.8 INaR to more positive potentials | average INaR amplitude at −15 mV, N390K (Nav1.8 N390K [5]; + FHF2B, ND7/23, n = 7, p > 0.05 vs Nav1.8): 4.4% ± 0.7% | V1/2 of steady-state inactivation, Y387K vs Nav1.8 (Nav1.8 Y387K [6]): None of four lysine-mutations significantly changed the V1/2 value of steady-state inactivation | Activation (V1/2), Y387K (Nav1.8 Y387K [6]; + FHF2B, ND7/23, n = 10): −9.9 ± 2.1 (10) mV | Inactivation (V1/2), Y387K (Nav1.8 Y387K [6]; + FHF2B, ND7/23, n = 10): −30.7 ± 1.5 (10) mV | INaP, Y387K (Nav1.8 Y387K [6]; end of 50-ms pulse of +10 mV, normalized to peak transient current, n = 8): 3.6 ± 0.9 (8) % | Nav1.8 INaR reconstitution by FHF4A A2 – W21 peptide (Nav1.8 [7]): could reconstitute the Nav1.8 INaR mediated by full-length FHF4A | average INaR amplitude at −15 mV, Y1717K (Nav1.8 Y1717K [8]): 4.6% ± 0.8% | V1/2 of steady-state inactivation, N390K vs Nav1.8 (Nav1.8 N390K [9]): None of four lysine-mutations significantly changed the V1/2 value of steady-state inactivation | Activation (V1/2), N390K (Nav1.8 N390K [9]; + FHF2B, ND7/23, n = 7): −9.7 ± 1.8 (7) mV | Inactivation (V1/2), N390K (Nav1.8 N390K [9]; + FHF2B, ND7/23, n = 7): −33.5 ± 1.0 (7) mV | INaP, N390K (Nav1.8 N390K [9]; end of 50-ms pulse of +10 mV, normalized to peak transient current, n = 7, *p < 0.05): 5.6 ± 2.2^* (7) % | V1/2 of steady-state inactivation, Y1717K vs Nav1.8 (Nav1.8 Y1717K [10]; 1 mM FHF4A peptide): None of four lysine-mutations significantly changed the V1/2 value of steady-state inactivation | Inactivation (V1/2), Y1717K (Nav1.8 Y1717K [10]; 1 mM FHF4A peptide, + FHF2B, ND7/23, n = 10): −38.4 ± 1.0 (10) mV | Activation (V1/2), Y1717K (Nav1.8 Y1717K [10]; 1 mM FHF4A peptide, + FHF2B, ND7/23, n = 10, ***p < 0.0001): 7.3 ± 1.5*** (10) mV | INaP, Y1717K (Nav1.8 Y1717K [10]; end of 50-ms pulse of +10 mV, normalized to peak transient current, 1 mM FHF4A peptide, n = 10): 5.4 ± 3.8 (10) % | positive shift of voltage dependence of activation by Y1717K (Nav1.8 Y1717K [10]; vs Nav1.8, 1 mM FHF4A peptide): 18.4 mV | effect on fast inactivation after Nav1.8 opens (Nav1.8 [11]): accelerates fast inactivation after Nav1.8 opens
